Active and inactive are the calls of the source. Some results are limits rather than exact numbers.

What is called EC50 is the midpoint of the concentration-response curve. The term CC50 denotes the concentration giving 50% cytotoxicity. Usually IC50 stands for the concentration that gives 50% inhibition. Broadly, the AC50 is the concentration at which the activity in the assay is half-maximal.

Series [1] addresses Luciferin 4-monooxygenase (Photinus pyralis, UniProt P08659). As to the kind of experiment: Counter Screen for Luciferase-based Assay Positives. [Related pubchem assays: 620, 618, 411 ]. On the technique in general: Counterscreens check selectivity or assay interference.
For the next series, the system named is HT-1080. As to the kind of experiment: cytotoxicity in HT1080 fibrosarcoma cells, cell-based, fluorescence readout (AID 620). Format: functional. Conditions: Homo sapiens.
Series [2] is described as follows: THP-1 cell cytotoxicity, dose response, cytotoxicity control for Vif-APOBEC3G degradation inhibitor project, THP-1 cells (AID 1117359). The conditions noted are these: Human immunodeficiency virus 1, THP-1. Type of series: functional.
The target in series [3] is Induced myeloid leukemia cell differentiation protein Mcl-1 (Homo sapiens, UniProt Q07820). Kind of series: MCL1-BIM BH3 interaction inhibitors, dose response, biochemical, fluorescence polarization, BIM-BH3 peptide, 1536-well (AID 2217).
Sequence of Induced myeloid leukemia cell differentiation protein Mcl-1 (Q07820 whole entry): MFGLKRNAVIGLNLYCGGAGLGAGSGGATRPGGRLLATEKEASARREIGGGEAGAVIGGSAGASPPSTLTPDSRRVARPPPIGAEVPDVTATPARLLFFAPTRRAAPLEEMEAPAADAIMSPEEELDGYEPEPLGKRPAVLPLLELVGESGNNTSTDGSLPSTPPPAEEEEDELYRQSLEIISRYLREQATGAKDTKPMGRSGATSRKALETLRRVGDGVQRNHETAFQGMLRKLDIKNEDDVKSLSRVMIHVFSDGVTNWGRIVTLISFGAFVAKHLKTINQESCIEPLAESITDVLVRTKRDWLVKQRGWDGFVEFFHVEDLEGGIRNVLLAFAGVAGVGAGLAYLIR
The next series deals with Bcl-2-like protein 1 (Homo sapiens, UniProt Q07817). As to the kind of experiment: BCL-XL inhibitors, dose response, selectivity assay for MCL1 inhibitor project, biochemical, fluorescence polarization, 1536-well (AID 2218). On the technique in general: In fluorescence polarisation assays a small probe gives low polarisation when free and higher when bound to something large.
Sequence of Bcl-2-like protein 1 (Q07817 whole entry): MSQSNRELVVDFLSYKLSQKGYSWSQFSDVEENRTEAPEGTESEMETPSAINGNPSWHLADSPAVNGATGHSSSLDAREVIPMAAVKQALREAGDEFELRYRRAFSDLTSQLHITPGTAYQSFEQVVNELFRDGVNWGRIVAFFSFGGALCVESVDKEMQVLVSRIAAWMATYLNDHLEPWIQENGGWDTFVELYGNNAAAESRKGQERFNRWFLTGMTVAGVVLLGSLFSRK

The target of series [4] is T1, Epstein-Barr nuclear antigen 1 (Epstein-Barr virus (strain B95-8) (HHV-4) (Human herpesvirus 4), UniProt P03211).
T1 sequence (P03211 whole entry): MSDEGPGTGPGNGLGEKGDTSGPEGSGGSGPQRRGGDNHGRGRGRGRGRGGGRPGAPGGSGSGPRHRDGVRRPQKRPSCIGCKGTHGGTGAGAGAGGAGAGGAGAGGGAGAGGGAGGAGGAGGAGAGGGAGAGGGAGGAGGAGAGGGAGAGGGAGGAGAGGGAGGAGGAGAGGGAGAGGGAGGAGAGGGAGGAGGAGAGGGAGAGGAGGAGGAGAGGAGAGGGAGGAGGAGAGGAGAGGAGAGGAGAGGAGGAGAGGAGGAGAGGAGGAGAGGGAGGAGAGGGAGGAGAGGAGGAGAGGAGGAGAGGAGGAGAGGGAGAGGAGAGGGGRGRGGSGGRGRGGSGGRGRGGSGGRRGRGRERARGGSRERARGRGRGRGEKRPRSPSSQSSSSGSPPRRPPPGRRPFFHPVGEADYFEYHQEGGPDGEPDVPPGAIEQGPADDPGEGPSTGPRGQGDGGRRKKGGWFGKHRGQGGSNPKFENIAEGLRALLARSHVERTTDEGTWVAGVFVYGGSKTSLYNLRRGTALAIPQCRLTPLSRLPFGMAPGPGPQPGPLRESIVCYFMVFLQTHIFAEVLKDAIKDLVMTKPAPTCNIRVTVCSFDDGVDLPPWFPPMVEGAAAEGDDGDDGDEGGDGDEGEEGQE
Kind of series: EBNA-1 inhibitors, dose response, biochemical, fluorescence polarization, 1536-well (AID 2381).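 Also: fluorescence polarization of a Cy5 DNA probe bound by EBNA-1 protein.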 Also on record: species or system human gammaherpesvirus 4.

The target of series [5] is T2, Lytic switch protein BZLF1 (Epstein-Barr virus (strain B95-8) (HHV-4) (Human herpesvirus 4), UniProt P03206).
T2 sequence (P03206 whole entry): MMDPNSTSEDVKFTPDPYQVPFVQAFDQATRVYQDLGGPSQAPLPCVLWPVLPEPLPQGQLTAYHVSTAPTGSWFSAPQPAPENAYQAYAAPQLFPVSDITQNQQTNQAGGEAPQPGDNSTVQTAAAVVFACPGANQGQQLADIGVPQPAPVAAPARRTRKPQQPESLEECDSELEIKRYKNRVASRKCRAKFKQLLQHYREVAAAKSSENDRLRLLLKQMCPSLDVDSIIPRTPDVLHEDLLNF
As to the kind of experiment: EBV ZTA inhibitors, dose response, counter-screen for EBNA-1 inhibitor project, biochemical, fluorescence polarization, Epstein-Barr virus, 1536-well (AID 2377).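 Also: fluorescence polarization of Cy5-labelled ZRE DNA probe bound by purified Zta.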 Also on record: species or system human gammaherpesvirus 4.

The next series concerns the target Cytochrome P450 2C19 (Homo sapiens, UniProt P33261). As to the kind of experiment: Cytochrome panel assay with activity outcomes. Panel member name: p450-cyp2c19 Compounds with AC50 equal or less than 10 uM are considered active. Format: functional.
The nature of series [6]: cytotoxicity in KRAS-transformed pancreatic duct cells, primary screen, cell-based, fluorescence, HTS (AID 431).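 Also: cell line used: HPDE-C7K.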 Type of series: functional. Conditions: Homo sapiens.
Series [7] is described as follows: cytotoxicity in HPDE-C7 cells, cell-based, fluorescence, HTS (AID 430). Type of series: functional. The conditions noted are these: Homo sapiens.
A further series has as its system Vero. Kind of series: Vero cell cytotoxicity, cytotoxicity control for flavivirus capping enzyme inhibitors (AID 588742). Conditions: Chlorocebus sabaeus. Format: functional.
Series [8] has as its target T3, Replicative DNA helicase DnaB (Mycobacterium tuberculosis, UniProt P9WMR3).
T3 sequence (P9WMR3 whole entry): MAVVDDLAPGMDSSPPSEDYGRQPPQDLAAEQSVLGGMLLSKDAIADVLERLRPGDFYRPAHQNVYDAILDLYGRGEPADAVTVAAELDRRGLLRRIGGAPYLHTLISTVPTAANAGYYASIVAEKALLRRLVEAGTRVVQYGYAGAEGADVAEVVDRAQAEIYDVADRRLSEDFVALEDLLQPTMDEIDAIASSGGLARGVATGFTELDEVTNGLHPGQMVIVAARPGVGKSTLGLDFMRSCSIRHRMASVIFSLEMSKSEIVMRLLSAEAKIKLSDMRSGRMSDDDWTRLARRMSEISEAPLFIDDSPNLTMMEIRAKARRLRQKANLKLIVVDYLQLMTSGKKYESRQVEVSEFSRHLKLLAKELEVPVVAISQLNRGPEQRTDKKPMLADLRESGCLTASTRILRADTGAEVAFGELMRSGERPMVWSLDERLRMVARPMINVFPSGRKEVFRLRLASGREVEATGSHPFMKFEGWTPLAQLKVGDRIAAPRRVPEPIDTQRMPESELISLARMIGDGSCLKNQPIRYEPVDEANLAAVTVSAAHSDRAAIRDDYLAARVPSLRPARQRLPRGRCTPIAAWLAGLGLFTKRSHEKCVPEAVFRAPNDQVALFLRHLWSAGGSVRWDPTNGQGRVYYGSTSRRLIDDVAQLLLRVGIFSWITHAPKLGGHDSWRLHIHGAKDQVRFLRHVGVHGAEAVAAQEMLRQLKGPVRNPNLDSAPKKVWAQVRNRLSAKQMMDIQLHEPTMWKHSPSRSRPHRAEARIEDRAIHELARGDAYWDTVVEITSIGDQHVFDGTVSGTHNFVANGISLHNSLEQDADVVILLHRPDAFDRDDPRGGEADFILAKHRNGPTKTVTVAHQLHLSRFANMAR
As to the kind of experiment: DnaB intein splicing inhibitors, dose response, biochemical, cell-free fluorescence (AID 449749). Type of series: functional.

Another series concerns the target T4, Protein RecA (Mycobacterium tuberculosis, UniProt P9WHJ3).
T4 sequence (P9WHJ3 whole entry): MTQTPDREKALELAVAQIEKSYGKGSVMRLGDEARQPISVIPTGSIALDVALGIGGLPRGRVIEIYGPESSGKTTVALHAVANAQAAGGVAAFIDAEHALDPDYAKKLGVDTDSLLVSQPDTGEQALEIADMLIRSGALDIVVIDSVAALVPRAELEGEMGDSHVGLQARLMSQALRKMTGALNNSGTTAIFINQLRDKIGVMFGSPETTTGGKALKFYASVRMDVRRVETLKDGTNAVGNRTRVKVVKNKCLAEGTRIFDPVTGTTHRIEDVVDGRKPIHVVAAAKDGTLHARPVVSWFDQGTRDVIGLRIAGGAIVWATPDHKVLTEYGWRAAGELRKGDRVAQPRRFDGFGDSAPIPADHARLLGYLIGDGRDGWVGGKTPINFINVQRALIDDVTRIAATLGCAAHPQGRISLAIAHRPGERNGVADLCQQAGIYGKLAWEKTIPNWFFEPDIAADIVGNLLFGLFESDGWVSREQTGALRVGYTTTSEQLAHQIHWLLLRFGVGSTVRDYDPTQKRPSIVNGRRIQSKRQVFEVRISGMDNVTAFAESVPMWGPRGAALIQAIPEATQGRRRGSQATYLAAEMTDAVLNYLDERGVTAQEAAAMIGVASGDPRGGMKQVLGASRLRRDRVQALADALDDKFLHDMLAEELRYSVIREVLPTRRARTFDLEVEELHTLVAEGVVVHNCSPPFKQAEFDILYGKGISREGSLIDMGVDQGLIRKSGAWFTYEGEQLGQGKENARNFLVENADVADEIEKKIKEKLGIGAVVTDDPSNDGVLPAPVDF
As to the kind of experiment: Fluorescence Cell-Free Homogeneous Dose Retest to Identify Inhibitors of RecA-Intein Splicing Activity. [Related pubchem assays (depositor defined):AID2097, AID2223, AID489010, AID492950]. Format: functional.

Series [9] can be described thus: A Cell Based Secondary Assay To Explore Cytotoxicity of Compounds that Sensitize Mycobacterium Tuberculosis to Beta-Lactam Antibiotics. Type of series: functional.
Series [10] deals with Polyadenylate-binding protein 1 (Homo sapiens, UniProt P11940). As to the kind of experiment: PABP poly(A) RNA binding inhibitors, primary screen, biochemical, fluorescence polarization, uHTS (AID 2014).
Sequence of Polyadenylate-binding protein 1 (P11940 whole entry): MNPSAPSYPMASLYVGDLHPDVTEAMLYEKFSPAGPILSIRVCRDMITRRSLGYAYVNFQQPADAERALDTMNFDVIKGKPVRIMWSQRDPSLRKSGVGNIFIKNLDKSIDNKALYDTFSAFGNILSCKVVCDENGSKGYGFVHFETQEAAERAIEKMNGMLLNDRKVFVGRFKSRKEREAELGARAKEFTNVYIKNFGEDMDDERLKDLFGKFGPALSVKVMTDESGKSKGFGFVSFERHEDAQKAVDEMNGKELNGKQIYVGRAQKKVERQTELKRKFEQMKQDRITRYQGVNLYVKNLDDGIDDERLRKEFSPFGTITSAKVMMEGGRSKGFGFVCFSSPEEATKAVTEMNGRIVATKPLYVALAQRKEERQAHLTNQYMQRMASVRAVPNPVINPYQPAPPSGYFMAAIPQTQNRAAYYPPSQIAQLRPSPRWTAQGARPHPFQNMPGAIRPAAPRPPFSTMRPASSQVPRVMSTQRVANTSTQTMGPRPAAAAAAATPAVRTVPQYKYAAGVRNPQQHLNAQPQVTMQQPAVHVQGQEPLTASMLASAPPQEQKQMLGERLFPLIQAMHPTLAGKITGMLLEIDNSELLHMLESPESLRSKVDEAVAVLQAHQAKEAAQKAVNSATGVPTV
Series [11] has as its target T5, Zinc finger protein mex-5 (Caenorhabditis elegans, UniProt Q9XUB2).
T5 sequence (Q9XUB2 whole entry): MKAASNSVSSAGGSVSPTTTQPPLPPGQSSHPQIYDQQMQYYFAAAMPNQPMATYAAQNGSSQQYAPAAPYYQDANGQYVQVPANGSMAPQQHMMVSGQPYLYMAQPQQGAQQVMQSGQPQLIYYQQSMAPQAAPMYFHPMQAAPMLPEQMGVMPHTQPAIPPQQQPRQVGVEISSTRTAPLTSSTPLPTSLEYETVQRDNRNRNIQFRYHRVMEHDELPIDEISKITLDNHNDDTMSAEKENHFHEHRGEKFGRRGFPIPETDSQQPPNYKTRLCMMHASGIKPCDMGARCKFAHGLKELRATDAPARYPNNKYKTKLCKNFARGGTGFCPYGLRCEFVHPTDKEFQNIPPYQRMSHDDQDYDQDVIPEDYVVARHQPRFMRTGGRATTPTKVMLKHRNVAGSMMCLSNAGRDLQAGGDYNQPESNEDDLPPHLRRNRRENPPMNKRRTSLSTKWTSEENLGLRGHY
Kind of series: MEX-5/TCR-2 RNA interaction inhibitors, dose response, biochemical, C. elegans, fluorescence polarization (AID 1960).

Series [12] deals with Eukaryotic translation initiation factor 4H (Homo sapiens, UniProt Q15056). Kind of series: human eIF4H binding inhibitors, primary screen, translation initiation inhibitor project, biochemical, uHTS, fluorescence polarization (AID 2012).
Series [13] deals with T6, RNA-binding protein pos-1 (Caenorhabditis elegans, UniProt G5EF15).
T6 sequence (G5EF15 whole entry): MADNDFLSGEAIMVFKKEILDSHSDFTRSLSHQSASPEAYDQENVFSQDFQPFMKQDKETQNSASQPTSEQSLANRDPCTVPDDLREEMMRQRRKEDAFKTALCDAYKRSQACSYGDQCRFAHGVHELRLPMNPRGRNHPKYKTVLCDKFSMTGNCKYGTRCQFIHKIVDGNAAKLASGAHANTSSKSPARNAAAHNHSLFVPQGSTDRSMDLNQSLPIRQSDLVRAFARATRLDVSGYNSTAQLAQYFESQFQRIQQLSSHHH
Kind of series: inhibitors of POS-1/mex-3 RNA binding, dose response, biochemical, fluorescence polarization (AID 1964).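 Also: purified POS-1 fused to maltose binding protein made in E. coli; potency of compounds blocking POS-1 binding to fluorescent RNA.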

Sequence of Luciferin 4-monooxygenase (P08659 whole entry): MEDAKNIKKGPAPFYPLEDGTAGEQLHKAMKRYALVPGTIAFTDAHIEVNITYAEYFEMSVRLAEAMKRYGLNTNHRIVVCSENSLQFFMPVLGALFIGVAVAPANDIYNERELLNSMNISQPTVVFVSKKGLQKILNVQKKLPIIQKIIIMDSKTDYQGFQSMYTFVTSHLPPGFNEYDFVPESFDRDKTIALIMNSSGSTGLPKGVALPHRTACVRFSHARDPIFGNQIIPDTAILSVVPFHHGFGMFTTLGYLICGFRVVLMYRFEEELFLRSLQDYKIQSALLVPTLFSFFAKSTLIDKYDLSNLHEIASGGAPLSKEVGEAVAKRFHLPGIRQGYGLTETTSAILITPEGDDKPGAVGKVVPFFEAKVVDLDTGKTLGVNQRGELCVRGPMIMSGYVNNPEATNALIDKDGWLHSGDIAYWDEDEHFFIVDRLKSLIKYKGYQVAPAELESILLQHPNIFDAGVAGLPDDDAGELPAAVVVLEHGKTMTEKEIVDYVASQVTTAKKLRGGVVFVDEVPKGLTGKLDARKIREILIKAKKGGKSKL
Sequence of Cytochrome P450 2C19 (P33261 whole entry): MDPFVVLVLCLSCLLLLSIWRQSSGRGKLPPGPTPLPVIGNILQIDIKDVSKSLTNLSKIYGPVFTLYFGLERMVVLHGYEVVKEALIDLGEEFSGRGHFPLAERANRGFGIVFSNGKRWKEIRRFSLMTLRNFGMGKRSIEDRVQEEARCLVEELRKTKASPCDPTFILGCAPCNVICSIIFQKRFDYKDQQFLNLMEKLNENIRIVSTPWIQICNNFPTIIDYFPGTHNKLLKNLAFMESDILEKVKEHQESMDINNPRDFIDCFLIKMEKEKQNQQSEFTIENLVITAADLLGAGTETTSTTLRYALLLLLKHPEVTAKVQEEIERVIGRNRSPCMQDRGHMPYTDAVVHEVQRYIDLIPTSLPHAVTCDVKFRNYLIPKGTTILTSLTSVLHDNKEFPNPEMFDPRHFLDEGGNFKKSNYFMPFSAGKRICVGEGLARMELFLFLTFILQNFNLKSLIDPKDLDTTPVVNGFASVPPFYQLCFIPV

With `O=C(Nc1ccc(N2CCCC2)c(Cl)c1)c1ccco1`, the results for the concentration giving a half-maximal response (EC50) (in [1]; with HT-1080) were < 0.2 µM (active) and > 50 µM (not active), respectively.

`O=[N+]([O-])c1cc(CN2CCCC2)c2cccnc2c1O`: the 50% cytotoxic concentration (CC50) in series [2] is > 40 µM (active). Moreover, the results for the IC50 (in series [3]; on Bcl-2-like protein 1) were 2.7 µM (active) and > 109 µM (not active), respectively.

Consider `COc1ccc(NC(=O)c2ccc(C(=O)Nc3ccc(OC)cc3OC)cc2)c(OC)c1`, for which the IC50 in series [4] was 19.2 µM (not active); in series [5], > 111 µM (not active).

Consider `O=C(Nc1cccc(NC(=O)c2cccs2)c1)c1ccc(Br)cc1`, for which the results for the IC50 in series [4] and in series [5] were 6.65 µM (active) and > 111 µM (not active), respectively.

Regarding `Cc1ccc(/C(O)=C/C2=NCC(C)NC2=O)cc1` (stereo unspecified), on Cytochrome P450 2C19, the AC50 result is listed as “inconclusive”. Further, the EC50 is recorded as > 100 µM (not active) in series [1] and > 50 µM (not active) with HT-1080.

`COc1ccc(O)c(C(=O)CC(=O)c2ccccc2)c1`: the EC50 was 5.71 µM (active) in series [1] and > 50 µM (not active) in the series on HT-1080.

Regarding `CCC(=O)Nc1ccc(C(=O)Nc2ccc3c(c2)C(=O)N(CC2CCCO2)C3=O)cc1` (stereo unspecified), the half-inhibitory concentration (IC50) in series [4] was 6.54 µM (active); in [5] it was > 111 µM (not active).

On to `CCCc1n[nH]c2c1C(c1ccc(Br)s1)C(C#N)=C(N)O2` (stereo unspecified), for which the concentration for a half-maximal effect (EC50) in series [6] is 7 µM (active); in series [7] it was 5.48 µM (active); on Protein RecA it was 7.21 µM (active). Also, the CC50 in the series on Vero is 39.9 µM (active). Further, in series [8], the AC50 is 8.54 µM (active).

For the molecule `CCOc1ccc(-c2cnc3n2CCC3)cc1`, in [9], the cytotoxic concentration (CC50) is > 40 µM (active).

For the molecule `CCCSc1nnc(NC(=O)Nc2ccccc2)s1`, the IC50 in [10] and in series [12] was > 100 µM (inactive) in each case. The EC50 in series [11] and in series [13] was > 300 µM (not active) each time.

The values are drawn from ChEMBL document CHEMBL1201862, “PubChem BioAssay data set” (2004).
